Reference: US9232796B2, “Herbicidal compositions comprising 4-amino-3-chloro-5-fluoro-6-(4-chloro-2-fluoro-3-methoxyphenyl) pyridine-2-carboxylic acid or a derivative thereof and acetyl-CoA carboxylase (ACCase) inhibitors” (DOW AGROSCIENCES LLC, priority 2012, dated 2016)
Values joined by “and” are separate entries in the source; they are usually repeats but may differ in a detail not shown here. Identical values can stand only once.

Legend:
SCPJU = test: Example V (second) postemergence foliar-applied ternary mixtures, greenhouse, direct seeded rice weeds; assay type: in vivo, Schoenoplectus juncoides (Roxb.) Palla
Text: Seeds or nutlets of the desired test plant species were planted in a soil matrix prepared by mixing a sandy loam or loam soil (e.g., 32 percent silt, 23 percent clay, and 45 percent sand, with a pH of about 6.5 and an organic matter content of about 1.9 percent) and calcareous grit in an 80 to 20 ratio. The soil matrix was contained in plastic pots with a volume of 1 quart and a surface area of 83.6 square centimeters (cm^2). When required to ensure good germination and healthy plants, a fungicide treatment and/or other chemical or physical treatment was applied. The plants were grown for 8-22 days in a greenhouse with an approximate 14 hr. photoperiod which was maintained at about 29° C. during the day and 26° C. during the night. Nutrients (Peters Excel® 15-5-15 5-Ca 2-Mg and iron chelate) were applied in the irrigation solution as needed and water was added on a regular basis. Supplemental lighting was provided with overhead metal halide 1000-Watt lamps as necessary. The plants were employed for testing when they reached the first through fourth true leaf stage.
Treatments consisted of the benzyl ester of 4-amino-3-chloro-5-fluoro-6-(4-chloro-2-fluoro-3-methoxy-phenyl)pyridine-2-carboxylic acid (Compound A), formulated as an SC (suspension concentrate), an ACCase inhibitor, and a third herbicidal component, each applied alone and in ternary combination. Forms of compound A were applied on an acid equivalent basis.
The ACCase inhibitor component was applied on an active ingredient basis and included cyhalofop-R-butyl formulated as Clincher® SF, fenoxaprop-p-ethyl formulated as RiceStar® HT, and profoxydim formulated as Aura® 20EC. Other herbicidal components were applied on an active ingredient or acid equivalent basis depending on the compound and included penoxsulam formulated as Grasp® SC, bentazon sodium formulated as Basagran®, triclopyr […] (TEA) salt formulated as Grandstand® R, bispyribac sodium formulated as Regiment® 80WP, imazamox ammonium formulated as Beyond®, benzobicyclon, quinclorac formulated as Facet® 75DF, glyphosate dimethylammonium (DMA) salt formulated as Durango® DMA, glufosinate ammonium formulated as Ignite® 280, fentrazamide formulated as an emulsifiable concentrate (EC), propyrisulfuron formulated as Zeta One®, and indanofan (technical grade material).
Treatment requirements were calculated based upon the rates being tested, the concentration of active ingredient or acid equivalent in the formulation, and a 12 mL application volume at a rate of 187 L/ha.
For treatments comprised of formulated compounds, measured amounts of compounds were placed individually in 25 mL glass vials and diluted in a volume of 1.25% (v/v) Agri-Dex® crop oil concentrate to obtain 12× stock solutions. […]

SCPMA = test: Example VI in-water applied ternary mixtures, greenhouse, transplanted paddy rice weeds; assay type: in vivo
IPOHE = test: Example V (second) postemergence foliar-applied ternary mixtures, greenhouse, direct seeded rice weeds; assay type: in vivo, Ipomoea hederacea Jacq.
Text: All stock solutions and applications solutions were visually inspected for compound compatibility prior to application. Spray solutions were applied to the plant material with an overhead Mandel track sprayer equipped with a 8002E nozzles calibrated to deliver 187 L/ha over an application area of 0.503 m^2 at a spray height of 18 inches (46 cm) above average plant canopy height. Control plants were sprayed in the same manner with the solvent blank.
(§1) The treated plants and control plants were placed in a greenhouse as described above and watered by sub-irrigation to prevent wash-off of the test compounds. After approximately 3 weeks, the condition of the test plants as compared with that of the untreated plants was determined visually and scored on a scale of 0 to 100 percent where 0 corresponds to no injury or growth inhibition and 100 corresponds to complete kill.
(§2) Colby's equation was used to determine the herbicidal effects expected from the mixtures (Colby, S. R. 1967. Calculation of the synergistic and antagonistic response of herbicide combinations. Weeds 15:20-22.).
(§3) The following equation was used to calculate the expected activity of mixtures containing three active ingredients, A, B, and C: Expected=A+B+C−((A×B+A×C+B×C)/100)+(A×B×C/10000)

ECHCO = test: as above; assay type: in vivo, Echinochloa colona (L.) Link
Protocol: as §1, §2, §3

| SMILES | Visual Weed Control (%) - 21 DAA SCPJU Obs (SCPJU; 2.19 gae/ha) [%] | Visual Weed Control (%) - 21 DAA SCPJU Obs (SCPJU; 4.38 gae/ha) [%] | Visual Weed Control (%) - 21 DAA SCPMA Obs (SCPMA; Table 68, 4 gae/ha) [%] | Visual Weed Control (%) - 21 DAA SCPMA Obs (SCPMA; Table 68, 8 gae/ha) [%] | Visual Weed Control (%) - 21 DAA SCPMA Obs (SCPMA; Table 68, 16 gae/ha) [%] | Visual Weed Control (%) - 21 DAA IPOHE Obs (IPOHE; 8 gae/ha) [%] | Visual Weed Control (%) - 21 DAA IPOHE Obs (IPOHE; 16 gae/ha) [%] | Visual Weed Control (%) - 21 DAA ECHCO Obs (ECHCO; 2.19 gae/ha) [%] | Visual Weed Control (%) - 21 DAA ECHCO Obs (ECHCO; 4.38 gae/ha) [%] | Visual Weed Control (%) - 21 DAA ECHCO Obs (ECHCO; 8 gae/ha) [%] | Visual Weed Control (%) - 21 DAA SCPJU Obs (SCPJU; 35 gai/ha) [%] | Visual Weed Control (%) - 21 DAA SCPMA Obs (SCPMA; Table 68, cyhalofop-butyl 22.5 gai/ha) [%] | Visual Weed Control (%) - 21 DAA SCPMA Obs (SCPMA; Table 68, cyhalofop-butyl 45 gai/ha) [%] | Visual Weed Control (%) - 21 DAA IPOHE Obs (IPOHE; Cyhalofop-butyl 35 gai/ha) [%] | Visual Weed Control (%) - 21 DAA ECHCO Obs (ECHCO; 35 gai/ha) |
| --- | --- | --- | --- | --- | --- | --- | --- | --- | --- | --- | --- | --- | --- | --- | --- |
| COc1c(Cl)ccc(-c2nc(C(=O)OCc3ccccc3)c(Cl)c(N)c2F)c1F [Compound A Benzyl Ester, benzyl ester of 4-amino-3-chloro-5-fluoro-6-(4-chloro-2-fluoro-3-methoxy-phenyl)pyridine-2-carboxylic acid] | 65 | 96 | 0 | 0 | 0 | 15 | 33 | 10 | 25 | 45 |  |  |  |  |  |
| CCCCOC(=O)[C@@H](C)Oc1ccc(Oc2ccc(C#N)cc2F)cc1 [Cyhalofop-butyl, butyl(2R)-2-[4-(4-cyano-2-fluorophenoxy)phenoxy]propanoate, reference compound] |  |  |  |  |  |  |  |  |  |  | 0 | 0 | 0 | 0 | 37% and 40% |
